Source: patent publication US9815851B2, “Pyrrolo carboxamides as modulators of orphan nuclear receptor RAR-related orphan receptor-gamma (RORγ, NR1F3) activity and for the treatment of chronic inflammatory and autoimmune diseases” (PHENEX PHARMACEUTICALS AG, priority 2011, dated 2017)
Read-outs that look alike come from different tables or passages of the source.

Assays:
[1] = target: T1, RORγ ligand binding domain (LBD) (Homo sapiens, UniProt P51449); assay: TR-FRET Activity Assay (ligand sensing, RORγ-LBD / coactivator peptide interaction, LANCE); type: biochemical
T1 construct: made in house; host or cells: E. coli BL-21 (BL3), vector pDEST15
T1 sequence (P51449 269-508 limits assumed): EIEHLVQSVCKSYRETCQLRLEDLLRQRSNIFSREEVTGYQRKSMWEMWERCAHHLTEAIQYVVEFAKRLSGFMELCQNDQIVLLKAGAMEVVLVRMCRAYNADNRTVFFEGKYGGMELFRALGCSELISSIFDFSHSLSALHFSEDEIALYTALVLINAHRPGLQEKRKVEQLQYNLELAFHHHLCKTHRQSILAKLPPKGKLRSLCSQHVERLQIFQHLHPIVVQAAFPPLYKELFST

[2] = target: T2, RORγ (UniProt P51449); assay: RORγ Gal4 Reporter Gene Assay in 293T cells (firefly and renilla luciferase); type: cell-based, human
T2 sequence (P51449 1-518): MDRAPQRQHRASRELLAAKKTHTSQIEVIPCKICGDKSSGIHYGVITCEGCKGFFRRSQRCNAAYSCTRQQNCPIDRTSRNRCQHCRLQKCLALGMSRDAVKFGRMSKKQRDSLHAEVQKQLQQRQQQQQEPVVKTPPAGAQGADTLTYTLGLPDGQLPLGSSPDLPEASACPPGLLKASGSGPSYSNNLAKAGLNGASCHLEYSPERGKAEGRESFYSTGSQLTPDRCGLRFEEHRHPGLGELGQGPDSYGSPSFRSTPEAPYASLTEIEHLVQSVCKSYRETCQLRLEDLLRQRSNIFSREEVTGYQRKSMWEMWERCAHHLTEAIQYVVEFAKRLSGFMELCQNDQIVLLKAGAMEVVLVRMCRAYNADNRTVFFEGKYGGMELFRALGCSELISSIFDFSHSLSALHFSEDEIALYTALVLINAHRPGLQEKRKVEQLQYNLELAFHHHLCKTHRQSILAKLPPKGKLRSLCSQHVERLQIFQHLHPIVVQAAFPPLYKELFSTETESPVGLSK

[3] = first value of the cell FRET/FF/REN, TR-FRET activity assay, read-out: pIC50 (FRET) (converted)
[4] = second value of the cell, Gal4 reporter gene assay in 293T cells, firefly luciferase
[5] = third value of the cell, Gal4 reporter gene assay in 293T cells, renilla normalised luciferase

Row | Compound | IC50 [1, 3] | pIC50 (FF) [2, 4] | pIC50 (REN) [2, 5] | IC50 [1] | pIC50 (FF) [2] | pIC50 (REN) [2]
1 | Cc1c(C(=O)NC2CCOCC2)cc(-c2cc(F)c(NS(=O)(=O)C(C)(C)C)c(C(F)(F)F)c2)n1CC1CCCCC1 [17/248] | 2510 nM | 6.4 | 7.3 |  |  | 
2 | Cc1c(C(=O)NC2CCOCC2)cc(-c2ccc(-c3ccnn3C(C)C)c(C(F)(F)F)c2)n1CC1CCCCC1 [17/249] | 501 nM | 6.6 | 6.7 |  |  | 
3 | Cc1c(C(=O)NCCC(C)(C)C(=O)O)cc(-c2ccc(-c3ccnn3C(C)C)c(C(F)(F)F)c2)n1CC1CCCCC1 [17/250] | 1580 nM | 6.6 | 6.5 |  |  | 
4 | Cc1c(C(=O)NC2CCOCC2)cc(-c2ccc(-c3nnc(C(C)(C)C)o3)c(C(C)(C)C)c2)n1CC1CCCCC1 [17/251] |  |  |  | 501 nM | 6.3/6.9/6.9 | 6.3/6.9/6.9
5 | Cc1c(C(=O)N[C@H]2C[C@H](C(=O)O)C2)cc(-c2ccc(-c3nnc(C(C)(C)C)o3)c(C(C)(C)C)c2)n1CC1CCCCC1 [17/252] | 1580 nM | 6.5 | 6.6 |  |  | 
6 | Cc1c(C(=O)NC2CCOCC2)cc(-c2ccc(S(=O)(=O)NC(C)(C)C)c(C(F)(F)F)c2)n1[C@@H](C)C1CCCCC1 [17/253] | 631 nM | 7.0 | 7.2 |  |  | 
7 | Cc1c(C(=O)NC2CCOCC2)cc(-c2ccc(S(=O)(=O)NC(C)(C)C)c(C(F)(F)F)c2)n1[C@H](C)C1CCCCC1 [17/254] | 631 nM | 6.6 | 6.6 |  |  | 
8 | Cc1c(C(=O)NC2CCOCC2)cc(-c2ccc(S(=O)(=O)NC(C)(C)C)c(C(F)(F)F)c2)n1CC1(O)CCCCC1 [17/255] | 7940 nM | < 4.7 | < 4.7 |  |  | 
9 | Cc1c(C(=O)NC2CCOCC2)cc(-c2ccc(S(=O)(=O)NC(C)(C)C)c(C(F)(F)F)c2)n1CC1CCC(F)(F)CC1 [17/256] | 631 nM | 6.8 | 7.0 |  |  | 
10 | Cc1c(C(=O)NC2CCOCC2)cc(-c2ccc(S(=O)(=O)NC(C)(C)C)c(C(F)(F)F)c2)n1CC1CCC(F)CC1 (stereo not drawn) [17/257] |  |  |  | 501 nM | 6.3/7.4/7.6 | 6.3/7.4/7.6
11 | Cc1c(C(=O)NC2CCOCC2)cc(-c2ccc(S(=O)(=O)NC(=O)C(C)(C)C)c(C(F)(F)F)c2)n1CC1CCCCC1 [17/258] | 7940 nM | < 4.7 | < 4.7 |  |  | 
12 | Cc1c(C(=O)NC2CCC(C)(C(=O)O)CC2)cc(-c2ccc(S(=O)(=O)NC(C)(C)C)c(C(F)(F)F)c2)n1CC1CCCCC1 (stereo not drawn) [17/259] | 1000 nM | 7.2 | 7.2 |  |  | 
13 | Cc1c(C(=O)N[C@H]2C[C@H](C(=O)O)C2)cc(-c2cc(C(C)(C)C)nc(C(C)(C)C)c2)n1CC1CCCCC1 [17/262] |  |  |  | 631 nM | 6.2/7.6/7.8 | 6.2/7.6/7.8
14 | Cc1c(C(=O)NC2CCS(=O)(=O)CC2)cc(-c2ccc(S(=O)(=O)NC(C)(C)C)c3ccccc23)n1CC1CCCCC1 [17/263] | 316 nM | 7.9 | 8.0 |  |  | 
15 | Cc1c(C(=O)NCC(C)(C)O)cc(-c2ccc(S(=O)(=O)NC(C)(C)C)c3ccccc23)n1CC1CCCCC1 [17/264] | 631 nM | 7.9 | 7.7 |  |  | 
16 | Cc1c(C(=O)NCC2CCS(=O)(=O)CC2)cc(-c2ccc(S(=O)(=O)NC(C)(C)C)c3ccccc23)n1CC1CCCCC1 [17/265] | 316 nM | 7.9 | 8.0 |  |  | 
17 | Cc1c(C(=O)N2CC3(CCOCC3)C2)cc(-c2ccc(S(=O)(=O)NC(C)(C)C)c3ccccc23)n1CC1CCCCC1 [17/266] | 251 nM | 8.3 | 8.5 |  |  | 
18 | Cc1c(C(=O)NCC2(C(N)=O)CCOCC2)cc(-c2ccc(S(=O)(=O)NC(C)(C)C)c3ccccc23)n1CC1CCCCC1 [17/267] | 794 nM | 7.9 | 8.0 |  |  | 
